Data on eight compounds can be found in patent US20220259172A1, “CHEMICAL INHIBITORS OF ID PROTEINS FOR THE TREATMENT OF CANCER AND OTHER DISEASES” (Universität Heidelberg, priority 2019, published 2022).

“Also recorded” adds a separate entry of the source.

Data set [1] has as its system Id1. In words: Id1 expression in HUVECs, Western blot. The format is cell-based, Human. The note with it: proliferating HUVECs; 24 hours (FIG. 10A). The method, then: (§1) Human umbilical vein endothelial cells (HUVECs) and lymphatic endothelial cells (LECs) were cultivated in EBM™-2 Endothelial Cell Growth Basal Medium supplemented with EGM™-2 MV Microvascular Endothelial Cell Growth Medium-2 SingleQuots™ Kit (both Lonza, catalogue numbers CC-3156 and CC4176, respectively), hereafter referred to as endothelial cell growth medium. HUVECs and LECs were cultivated in the presence of the indicated concentrations of X6632, or with DMSO as a solvent control. After 24 hours, cells were harvested. Lysates were western blotted and probed with antibodies against Id1 and Id3. Western blots probed with vinculin antibodies served as loading controls.
(§2) Western blot analysis was performed using standard methods. The following antibodies were used for protein detection: Id1 (195-14, CalBioreagents), Id3 (17-3, CalBioreagents), β-actin (AC-15, Sigma Aldrich), Vinculin (VIN-11-5, Sigma Aldrich). Protein bands were detected using HRP conjugated secondary antibodies (P0447, P0448, Agilent Technologies) and enhanced chemiluminescence (32106, Thermo Fisher Scientific).
(§3) The effect of X6632 on Id1 and Id3 expression in cultivated proliferating human umbilical vein endothelial cells (HUVECs) was investigated. […] LDN-193189, an antagonist of BMP receptor isotypes ALK2 and ALK3, served as a positive control reference for inhibition of Id1 and Id3 expression.
(In western blotting, separated proteins are transferred to a membrane and probed.)

In data set [2] the test system is Id3. In words: Id3 expression in HUVECs, Western blot. The format is cell-based, Human. As to conditions: proliferating HUVECs; 24 hours (FIG. 10A). The method, then: as §1, §2, §3
Data set [3] can be described thus: Toxicity observed in treated tumor-bearing mice. It is filed as in vivo. As to conditions: daily intraperitoneal injections; for Toxicity in the treated mice: 14 days. Here is the method: (§4) Cells were harvested using trypsin/EDTA and washed in PBS. The indicated numbers of living melanoma cells were subcutaneously injected into the flank of syngeneic mice in 100 μl PBS. For co-injection experiments, the indicated number of living cells was resuspended in 100 μl Matrigel HC (10 mg/ml, #354262, Corning Inc.), and subcutaneously injected into the flank. Tumor volume was calculated using the formula 4/3π (d1/2×d2/2×d3/2), where d1−d3 represents the diameter of the tumor in three dimensions. […] All animal experiments were approved by the local authorities, and performed according to the German legal requirements. Tumor initiating cell (TIC) frequency and p-values were calculated using ELDA software.
In contrast, daily intraperitoneal injections of CBD led to the death of two mice in the experiment with Ret cell-derived tumors (cause of death unknown).

Data set [4] deals with Id1. In words: Compound screen: BMP4-induced Id1 expression, Western blot. The note with it: for Inhibitory effect on Id1 protein expression: B16-F10 and Ret cells, BMP4 10 ng/ml and compound simultaneously, 24 h, rated relative to CBD. The format is cell-based, murine. The method, then: (§5) To screen compounds with an inhibitory effect on Id1 and Id3 expression, cells were simultaneously stimulated with BMP4 (10 ng/ml, 315-27, Peprotech) and substances at the indicated concentrations for 24 h. DMSO served as a solvent control. Effects on Id1 and Id3 expression levels were analysed by Western blotting.
as §2
(§6) B16-F10 and Ret melanoma cells were treated with BMP4 to induce Id1 and Id3 expression, and simultaneously treated with each of the compounds individually for a 24 h period.

Data set [5] deals with B16-F10 melanoma cells. Nature of the data set: Tumor growth and initiation in vivo, B16-F10. As to conditions: for Number of animals with tumors: B16-F10 cells, 8 mice per group, assessed over 90 days. Set-up: species or system mice.
Text: (§7) B16-F10 (A) or Ret (B) cells were co-injected with Matrigel into syngeneic mice. […] Numbers indicate the number of animals with a tumor in each group. Bar graphs show the mean tumor volume in each group at the day when the first animal had reached the legal tumor size limit. Kaplan-Meier curves show the percentage of tumor-free animals in percent as a measure for tumor initiation.
as §4
(§8) To investigate the anti-tumor properties of the selected Id1/Id3-inhibiting compounds, groups of experimental mice (8 per group) were injected subcutaneously with B16-F10 or Ret melanoma cells. […] Melanoma initiation and growth was assessed over a period of 90 days.

The test system of data set [6] is Id1. As to conditions: cited from earlier work.
Data set [7] deals with glioma. As to conditions: glioma model; cited from earlier work.
Data set [8] concerns mouse embryonic fibroblasts (MEFs). In words: Proliferation/cytotoxicity in mouse embryonic fibroblasts, 2D culture. The format is cell-based.
In data set [9] the test system is mammary carcinoma. As to conditions: orthotropic mammary carcinoma model; cited from earlier work.
Data set [10] has as its system Id3. In words: Compound screen: BMP4-induced Id3 expression, Western blot. The format is cell-based, murine. The note with it: for Inhibitory effect on Id3 protein expression: B16-F10 and Ret cells, BMP4 10 ng/ml and compound simultaneously, 24 h, rated relative to CBD. The method, then:
as §5, §2, §6

For data set [11], the system named is B16-F10 and Ret cells. In words: 3D Matrigel assay. The format is cell-based, murine. The method, then:
X8166 inhibits melanoma cell growth in 3D Matrigel. B16-F10 (A) or Ret (B) control or CRISPR/Cas9 Id1/Id3 cells were seeded in 3D Matrigel (10 mg/ml) and grown for six days before analysis. B16-F10 or Ret cells were treated daily with DMSO or X8166 (7.5 μM). The number of colonies at six positions of each well of a 48-well plate were counted in each z-level (5-10 z-levels were imaged per position).
Cells (2×10^3) were mixed with Matrigel to obtain 150 μl of a cell/Matrigel (10 mg/ml, #354262, Corning Inc.) solution, which was seeded into a well of a 48-well plate. The gel was allowed to solidify at 37° C. for 30 min and was subsequently overlaid with 500 μl complete growth medium. After six days of culture, images were captured using a Leica DMI6000 B microscope at six different x/y positions in every well, and a minimum of five horizontal layers (z levels) at each position, in order to get every cell in focus for image analysis. Image analysis was performed using Fiji software as follows: First, images were transformed into 8-bit files (pixel values from 0 (black) to 255 (white)). The scale was set to distance=0, known=0, pixel=1, and unit=pixel global. Outlines of each colony in focus in every image were detected using the integrated semi-automatic magic wand tool. Once outlines were matching the morphology of the colony were obtained, the colony was filled white (pixel value 255) using the fill function. Thresholding of pixel values (threshold=255) allowed black (background) and white (colonies) images of the filled colonies to be obtained. The “Analyze particles” function was applied to measure the area and perimeter of colonies with a minimum pixel size of 1500. An invasive index was calculated as follows: Invasive index=(perimeter)^2/area, resulting in a unitless measure of invasiveness.

Data set [12] deals with B16-F10 and Ret cells. Nature of the data set: Proliferation of melanoma cells in 2D culture. The format is cell-based, murine.
In data set [13] the target is CB2 (Homo sapiens, UniProt P34972). The note with it: cited from earlier work.
The subject of data set [14] is Ret melanoma cells. Nature of the data set: Tumor growth and initiation in vivo, Ret. Also noted: species or system mice.
Text: as §7, §4, §8

Setting [15] is: compound 3.3 μM, BMP4, 24 h (FIG. 9B).

Chain of CB2 (P34972 whole entry, species assumed): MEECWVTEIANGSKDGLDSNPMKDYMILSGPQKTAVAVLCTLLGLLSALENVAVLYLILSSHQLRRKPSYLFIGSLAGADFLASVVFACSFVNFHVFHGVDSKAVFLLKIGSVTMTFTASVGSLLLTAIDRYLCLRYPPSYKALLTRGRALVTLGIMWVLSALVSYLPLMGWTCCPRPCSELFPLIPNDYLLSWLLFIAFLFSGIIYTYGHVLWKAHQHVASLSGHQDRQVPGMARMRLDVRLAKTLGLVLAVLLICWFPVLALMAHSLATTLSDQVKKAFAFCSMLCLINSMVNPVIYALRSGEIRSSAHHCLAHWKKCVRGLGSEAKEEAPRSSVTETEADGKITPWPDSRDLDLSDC

Consider `Cc1cc(=O)oc2cc(O)ccc12` [4-methylumbelliferone, reference compound], for which, in data set [1], the Id1 protein expression result was “did not reduce”. Also, in data set [2], the Id3 protein expression result was “did not reduce”.
In the case of `C=C(C)[C@@H]1CCC(C)=C[C@H]1c1c(O)cc(CCCCC)cc1O` [CBD, Cannabidiol, reference compound], the “Toxicity in the treated mice” value in [3] is recorded as “toxicity-related injury to their intestinal organs”. In addition, in [3] (experiment with Ret cell-derived tumors, cause of death unknown), the Death of mice entry is recorded as “two”. Moreover, the “Inhibition of Id1 expression” value in [4] (setting [15]) is recorded as “does not inhibit”. Further, in data set [5], the “Number of animals with tumors” value is recorded as “seven out of eight”. Moreover, the “Id1 expression at the transcriptional level” value in [6] is given as “inhibits”. For the same compound, in [7], the Id1 expression entry is “inhibited”, the Invasion in vivo entry is recorded as “decreased invasion” and the “Survival of tumor-bearing mice” value was “prolonged survival”. The “Proliferation / cytotoxicity, non-transformed MEFs” value in [8] was “strongly inhibited; also recorded: more toxic”. For the same compound, in data set [9], the “Levels of Id1 in tumor tissue” value was “reduced levels”; the “Primary tumor growth and lung metastasis” value is “inhibition”. In addition, the “Inhibition of Id3 expression” value in data set [10] (setting [15]) is reported as “does not inhibit”. For the same compound, the “3D assays could not be performed with daily application, reason” value in [11] (daily application in 3D Matrigel) was “cytotoxicity”. In addition, the “Proliferation / cytotoxicity, melanoma cells” value in data set [12] is on record as “strongly inhibited; also recorded: more cytotoxic”. Further, the “Affinity for CB2” value in data set [13] is on record as “low affinity”.
In the case of `CCCCCCCC(C)(C)c1cc(O)c2cc(Cc3ccccc3O)c(=O)oc2c1` [X81], the “Inhibitory effect on Id1 protein expression” value in [4] is given as “strongest inhibitory activities”. Further, in data set [10], the “Inhibitory effect on Id3 protein expression” value was “strongest inhibitory activities”.
In the case of `CCCCCCC(C)(C)c1cc(O)c2cc(Cc3ccccc3O)c(=O)oc2c1` [X106], the “Inhibitory effect on Id1 protein expression” value in [4] was “strongest inhibitory activities”. Besides, the “Inhibitory effect on Id3 protein expression” value in data set [10] was “strongest inhibitory activities”.
In the case of `O=C(Nc1nn(Cc2ccc(C(F)(F)F)cc2)c2c(C(F)(F)F)cccc12)c1ccccc1` [X8035], the “Inhibitory effect on Id1 protein expression” value in data set [4] is listed as “strongest inhibitory activities”. For the same compound, the “Inhibitory effect on Id3 protein expression” value in data set [10] was “strongest inhibitory activities”.
Regarding `CCCCn1cc(C(=O)Cc2ccccc2)c2ccccc21` [X8166], the “Toxicity in the treated mice” value in data set [3] is listed as “no evidence for toxicity was observed; also recorded: well tolerated”. The “Inhibitory effect on Id1 protein expression” value in [4] is listed as “strongest inhibitory activities”. Besides, the “Melanoma growth and initiation” value was “significantly inhibit; also recorded: potent inhibitors” in data set [5] (B16-F10 cells co-injected with Matrigel, syngeneic mice, daily i.p. first 14 days, compared to DMSO) and “significantly inhibit; also recorded: potent inhibitors” in [14] (Ret cells co-injected with Matrigel, syngeneic mice, daily i.p. first 14 days, compared to DMSO). Also, the “Number of animals with tumors” value in data set [5] is on record as “none”. Besides, the “Tumor growth and initiation compared to CBD” value in data set [5] (B16-F10 experiment, daily i.p. first 14 days) was “significantly more”; in [14] (Ret experiment, daily i.p. first 14 days) it was “significantly more”. Besides, the “Number of mice that did not develop any tumors” value in data set [14] (Ret cells, 8 mice per group, assessed over 90 days) amounted to 2 mice. The “Proliferation / cytotoxicity, non-transformed MEFs” value in data set [8] was “modest inhibitory effect; also recorded: well tolerated; also recorded: superior; also recorded: less cytotoxic”. Moreover, the “Inhibitory effect on Id3 protein expression” value in data set [10] is recorded as “strongest inhibitory activities”. Moreover, in data set [11] (Matrigel 10 mg/ml, six days, treated daily, X8166 7.5 μM), the “Growth of melanoma cells in 3D Matrigel” value is “significantly impaired; also recorded: inhibits”. For the same compound, the “Proliferation / cytotoxicity, melanoma cells” value in data set [12] is on record as “modest inhibitory effect; also recorded: less cytotoxic”.
With `Cc1ccc(Cn2cc(CC(=O)Nc3ccc(C(F)(F)F)cc3)c3ccccc32)cc1` [X8706], the “Inhibitory effect on Id1 protein expression” value in data set [4] is given as “strongest inhibitory activities”. Moreover, the “Inhibitory effect on Id3 protein expression” value in data set [10] was “strongest inhibitory activities”.
For `Cc1ccc(CN(C(=O)c2ccccc2)c2nn(Cc3ccc(C)cc3)c3c(C(F)(F)F)cccc23)cc1` [X8766], in data set [4], the “Inhibitory effect on Id1 protein expression” value is reported as “strongest inhibitory activities”. Besides, the “Inhibitory effect on Id3 protein expression” value in data set [10] is recorded as “strongest inhibitory activities”.
